In patent US9232792B2, “Method for promoting plant growth” (SUMITOMO CHEMICAL COMPANY, LIMITED, priority 2011, dated 2016):

What was measured:
Type in all cases: in vivo
[1] = system: Wheat (cultivar: Apogee); assay: Test Example 6: reduction of high-temperature stress by spraying treatment of wheat; details: 36° C./32° C. for 7 days, 90 days after stress
Description: Five wheat seeds were sown in the culture soil (AISAI) in each plastic pot and cultivated for 28 days in an artificial weather control room under the conditions of a temperature of 18° C. in daytime/15° C. in night, and an illuminance of 7,000 lux. Before the stress test, 3 individuals per pot were removed.
To 0.5 mg of the present compound 1 were added 120 mg of a mixture (weight ratio 1:1) of white carbon and ammonium polyoxyethylene alkyl ether sulfate and 300 μl of water. The mixture was finely ground by a wet grinding method to obtain a flowable formulation of the present compound 1. This flowable formulation was diluted with 50 ml or 500 ml of water. The mixture was diluted with RINO (manufactured by NIHON NOHYAKU CO., LTD) as a spreading agent to 5,000-fold dilution to obtain a spray solution containing 10 ppm or 1 ppm of the present compound 1. A sufficient amount of the spray solution was applied to the wheat seedlings by using an automatic spraying machine.
In addition, a flowable formulation without the present compound 1 was prepared and then sprayed. This is called as a non-treated group.
The tested plants at 28 days after the sowing were cultivated for 7 days in an artificial weather control room under the conditions of a temperature of 36° C. in daytime/32° C. in night, a humidity of 50% in daytime/60% in night, an illuminance of 7,000 lux, and a day length of 12 hours.
After the high-temperature stress treatment, the plants were cultivated for 4 days in an artificial weather control room under the conditions of a temperature of 18° C. in daytime/15° C. in night, and a illuminance of 7,000 lux. Then, 90 days after the high-temperature stress treatment, the number and the weight of seeds in ears of the tested plants in 7 or 8 pots were measured, and the average values of the number and the weight of seeds per one ear were calculated. As a result, the number and the weight of seeds in the wheat plants treated with the present compound 1 at a concentration of 1 ppm or 10 ppm were much larger those in the non-treated group, in which the wheat plants were not treated with the present compound 1.

[2] = system: Rice (cultivar: Nipponbare); assay: Test Example 1: promotion of root growth in hydroponics of rice; details: 1 ppm in hydroponic solution; 3 days germination + 3 days cultivation
Description: Rice (cultivar: Nipponbare)
DMSO solutions containing each of the present compounds 1 to 3 at 10,000 ppm were prepared. A 1/10,000 volume of each DMSO solution containing each of the present compounds 1 to 3 at 10,000 ppm was added to a Hoagland solution for hydroponics at ¼ concentration (Hoagland and Arnon, California Agricultural Experiment Station 1950 Circular 347 pp. 34) to obtain a solution for hydroponics containing each of the present compounds 1 to 3 at 1 ppm. These solutions were used in the treated-group.
In a non-treated group, a solution for hydroponics obtained by adding a Hoagland solution for hydroponics at ¼ concentration to a 1/10,000 volume of DMSO was used.
The rice seeds were immersed in an aqueous solution of 1% sodium hypochlorite for 10 minutes, followed by 70% ethanol solution to sterilize their surfaces. After that, the seeds were washed with distilled water. The sterilized seeds were immersed in each solution for hydroponics containing the test compound at the given concentration, and incubated at a temperature of 28° C. for 3 days under dark conditions to stimulate the germination of the seeds.
Then, 30 ml of each solution for hydroponics containing the test compound at the given concentration was dispensed into a plastic tube (20 mm in diameter×113 mm in height) covered with a cardboard on the lateral surface for blocking a light. A float made of a styrene board and a vinyl mesh was placed on the water surface of each solution for hydroponics, and the rice seeds obtained after the stimulation of germination were placed on the float. The seeds were cultivated for 3 days under the conditions of an illuminance of 4,000 lux at the top of the tube, a temperature of 26° C., a humidity of 50%, and a day length of 16 hours.
The root length of the rice seedlings obtained after the cultivation was measured by using WinRHIZO system (manufactured by REGENT INSTRUMENTS). The average value of the root length in the treated group was calculated from the measurement values of 4 or 5 individuals. […]

[3] = system: Rice (cultivar: Nipponbare); assay: Test Example 7: reduction of drought stress by treatment of rice seeds; details: drought 2 days, then 14 days hydroponics
Description: Rice (cultivar: Nipponbare) A blank slurry solution containing 5% (V/V) color coat red (Becker Underwood, Inc.), 5% (V/V) CF-Clear (Becker Underwood, Inc.) and 1% Maxim XL (Syngenta) was prepared. A slurry solution was prepared by dissolving the present compound 1 in the blank slurry solution such that 50 g or 100 g of the compound is applied to each 100 kg of rice seeds. In a 50-ml centrifuge tube (manufactured by AGC TECHNO GLASS CO., LTD.), 0.3 ml of the slurry solution was placed for each 10 g of rice seeds and stirred until the solution was dried, thereby coating the seeds. In addition, seeds were coated with the blank slurry solution and used as seeds for a non-treated group. A filter paper was placed on the holes of a plug tray having 406 holes, and the rice seeds treated above were sown on the filter paper. […] Fourteen (14) days after the treatment, the fresh weight of the overground parts of five test plants in each treated group was measured. The experiment was performed in three replications in each treated group and the average value was calculated. […]

O=C(O)c1cc2cc(C(F)(F)F)ccc2s1 [The present compound 1, 5-(trifluoromethyl)benzo[b]thiophene-2-carboxylic acid]
number of seeds per ear vs non-treated group ([1]; spray 1 ppm): much larger
weight of seeds per ear vs non-treated group ([1]; spray 1 ppm): much larger
number of seeds per ear vs non-treated group ([1]; spray 10 ppm): much larger
weight of seeds per ear vs non-treated group ([1]; spray 10 ppm): much larger
root length of the rice seedlings vs non-treated group [2]: much longer
fresh weight of the overground part of plants vs non-treated group ([3]; seed treatment 50 g per 100 kg of seeds): much heavier
fresh weight of the overground part of plants vs non-treated group ([3]; seed treatment 100 g per 100 kg of seeds): much heavier
